Here are results for 19 compounds from PubChem BioAssay AID256 (DTP/NCI, 2004).

This experiment has as its system CD2F1 mice, L1210 leukemia ip, survival T/C. Nature of the experiment: NCI In Vivo Anticancer Drug Screen. Data for tumor model L1210 Leukemia (intraperitoneal) in CD2F1 (CDF1) mice. The note with it: higher = longer survival. The method in brief: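 Transplantable tumor in mice; compound-treated vs vehicle-treated groups. Read-out = treated/control ratio of the measured endpoint.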

Where [1] appears, read: endpoint: mean survival time, dose: 200.0 mg/kg/injection, schedule: Q01DX001 (ip), vehicle: saline with Tween-80.
Setting [2] is: endpoint: mean survival time, dose: 50.0 mg/kg/injection, schedule: Q04DX002 (ip), vehicle: saline with Tween-80.
The mark [3] stands for this setting: endpoint: mean survival time, dose: 100.0 mg/kg/injection, schedule: Q04DX002 (ip), vehicle: saline with Tween-80.
Where [4] appears, read: endpoint: mean survival time, dose: 200.0 mg/kg/injection, schedule: Q04DX002 (ip), vehicle: saline with Tween-80.
Setting [5] is: endpoint: mean survival time, dose: 100.0 mg/kg/injection, schedule: Q04DX003 (ip), vehicle: saline with Tween-80.
Where [6] appears, read: endpoint: mean survival time, dose: 200.0 mg/kg/injection, schedule: Q04DX003 (ip), vehicle: saline with Tween-80.
Where [7] appears, read: endpoint: mean survival time, dose: 400.0 mg/kg/injection, schedule: Q04DX003 (ip), vehicle: saline with Tween-80.
Where [8] appears, read: endpoint: mean survival time, dose: 25.0 mg/kg/injection, schedule: Q01DX009 (ip), vehicle: saline with Tween-80.
The mark [9] stands for this setting: endpoint: mean survival time, dose: 50.0 mg/kg/injection, schedule: Q01DX009 (ip), vehicle: saline with Tween-80.
Setting [10] is: endpoint: mean survival time, dose: 100.0 mg/kg/injection, schedule: Q01DX009 (ip), vehicle: saline with Tween-80.
The mark [11] stands for this setting: endpoint: mean survival time, dose: 200.0 mg/kg/injection, schedule: Q01DX009 (ip), vehicle: saline with Tween-80.
Setting [12] is: endpoint: mean survival time, dose: 25.0 mg/kg/injection, schedule: Q04DX003 (ip), vehicle: saline with Tween-80.
The mark [13] stands for this setting: endpoint: mean survival time, dose: 400.0 mg/kg/injection, schedule: Q01DX009 (ip), vehicle: saline with Tween-80.

“And” between values parts separate entries of the source, which are not always exact repeats. Identical values can stand only once. Inconclusive results and toxic doses are left out.

On to `CCOC(=O)Nc1cc2ncc(C(=O)N(C)c3ccccc3)nc2c(N)n1`, for which the T/C is 98 % of control (endpoint: mean survival time, dose: 100.0 mg/kg/injection, schedule: Q01DX001 (ip), vehicle: saline with Tween-80); 88 % of control under setting [1]; 98 % of control (endpoint: mean survival time, dose: 400.0 mg/kg/injection, schedule: Q01DX001 (ip), vehicle: saline with Tween-80).

With `O=C(CCC1CC=CCC1)c1ccccc1` (stereo unspecified), the T/C (endpoint: mean survival time, dose: 25.0 mg/kg/injection, schedule: Q04DX002 (ip), vehicle: saline with Tween-80) is 111 % of control; the T/C under setting [2] was 96 % of control; the T/C under setting [3] was 90 % of control; the T/C under setting [4] was 93 % of control.

For the compound `CSCCC(NC(C)=O)C(=O)O.CSCCC(NC(C)=O)C(=O)O.[NH-]C1CCCCC1[NH-].[Pt+2]` (stereo unspecified), the T/C is 100 % of control (endpoint: median survival time, dose: 3.12 mg/kg/injection, schedule: Q04DX003 (ip), vehicle: saline); 100 % of control (endpoint: median survival time, dose: 6.25 mg/kg/injection, schedule: Q04DX003 (ip), vehicle: saline); 97 % of control (endpoint: median survival time, dose: 12.5 mg/kg/injection, schedule: Q04DX003 (ip), vehicle: saline); 107 % of control (endpoint: median survival time, dose: 25.0 mg/kg/injection, schedule: Q04DX003 (ip), vehicle: saline); 93 % of control (endpoint: median survival time, dose: 50.0 mg/kg/injection, schedule: Q04DX003 (ip), vehicle: saline); 98 % of control (endpoint: median survival time, dose: 100.0 mg/kg/injection, schedule: Q04DX003 (ip), vehicle: saline). Further, the T/C (endpoint: median survival time, dose: 200.0 mg/kg/injection, schedule: Q04DX003 (ip), vehicle: saline) was 97 % of control.

On to `COC(=O)NC1=Nc2ccccc2-c2ccccc2N1`, for which the T/C is 101 % of control under setting [5], 96 % of control under setting [6] and 96 % of control under setting [7].

As to `O=C(OCc1ccccc1)C1CC1`, the T/C was 89 % of control (endpoint: mean survival time, dose: 25.0 mg/kg/injection, schedule: Q01DX005 (ip), vehicle: saline with Tween-80); 96 % of control under setting [8]; 97 % of control (endpoint: mean survival time, dose: 50.0 mg/kg/injection, schedule: Q01DX005 (ip), vehicle: saline with Tween-80); 104 % of control under setting [9]; 97 % of control under setting [2]; 93 % of control (endpoint: mean survival time, dose: 100.0 mg/kg/injection, schedule: Q01DX005 (ip), vehicle: saline with Tween-80). Besides, the T/C reads like this: under setting [10], 100 % of control; under setting [3], 102 % of control; (endpoint: mean survival time, dose: 200.0 mg/kg/injection, schedule: Q01DX005 (ip), vehicle: saline with Tween-80) 93 % of control; under setting [11], 93 % of control; under setting [4], 102 % of control.

On to `N#CC(c1ccc(N)cc1)C(CC(=O)c1ccccc1)c1ccccc1` (stereo unspecified), for which the T/C was 87 % of control and 95 % of control under setting [3]; 91 % of control under setting [4]; 87 % of control and 95 % of control (endpoint: mean survival time, dose: 400.0 mg/kg/injection, schedule: Q04DX002 (ip), vehicle: saline with Tween-80).

Turning to `O=C(CCc1ccc(O)cc1)ON1C(=O)CCC1=O`, the T/C (endpoint: mean survival time, dose: 50.0 mg/kg/injection, schedule: Q01DX009 (ip), vehicle: Klucel (hydroxypropylcellulose) (HPC)) is 105 % of control.

For the compound `CCOC(=O)C([NH-])C([NH-])C(=O)OCC.[Cl][Pt+2][Cl]` (stereo unspecified), the T/C (endpoint: mean survival time, dose: 12.5 mg/kg/injection, schedule: Q04DX003 (ip), vehicle: saline with Tween-80) is 186 % of control and the T/C under setting [12] was 195 % of control.

On to `CC(O)(P(=O)(O)O)P(=O)(O)O.[NH-]CC[NH-].[NH-]CC[NH-].[Pd+2].[Pd+2]`, for which the T/C is, setting by setting: (endpoint: mean survival time, dose: 3.13 mg/kg/injection, schedule: Q04DX003 (ip), vehicle: water) 106 % of control; (endpoint: mean survival time, dose: 6.25 mg/kg/injection, schedule: Q04DX003 (ip), vehicle: water) 103 % of control; (endpoint: mean survival time, dose: 12.5 mg/kg/injection, schedule: Q04DX003 (ip), vehicle: water) 87 % of control; (endpoint: mean survival time, dose: 25.0 mg/kg/injection, schedule: Q04DX003 (ip), vehicle: water) 103 % of control; (endpoint: mean survival time, dose: 50.0 mg/kg/injection, schedule: Q04DX003 (ip), vehicle: water) 93 % of control; (endpoint: mean survival time, dose: 100.0 mg/kg/injection, schedule: Q04DX003 (ip), vehicle: water) 102 % of control.

With `CCCCCCCCCC(=O)NCC[N+](C)(CC)CC`, the T/C by setting is: (endpoint: mean survival time, dose: 5.0 mg/kg/injection, schedule: Q01DX001 (ip), vehicle: saline) 102 % of control; (endpoint: mean survival time, dose: 10.0 mg/kg/injection, schedule: Q01DX001 (ip), vehicle: saline) 107 % of control; (endpoint: mean survival time, dose: 20.0 mg/kg/injection, schedule: Q01DX001 (ip), vehicle: saline) 100 % of control; (endpoint: mean survival time, dose: 40.0 mg/kg/injection, schedule: Q01DX001 (ip), vehicle: saline) 105 % of control.

`O=C1CC(c2ccccc2)=NN1c1ccccc1`: the T/C (endpoint: mean survival time, dose: 100.0 mg/kg/injection, schedule: Q04DX003 (ip), vehicle: Klucel (hydroxypropylcellulose) (HPC)) was 98 % of control; the T/C (endpoint: mean survival time, dose: 200.0 mg/kg/injection, schedule: Q04DX003 (ip), vehicle: Klucel (hydroxypropylcellulose) (HPC)) is 95 % of control; the T/C (endpoint: mean survival time, dose: 400.0 mg/kg/injection, schedule: Q04DX003 (ip), vehicle: Klucel (hydroxypropylcellulose) (HPC)) is 101 % of control.

Turning to `FC(F)(F)C(Cl)Br` (stereo unspecified), the T/C is 98 % of control under setting [10]; 97 % of control (endpoint: mean survival time, dose: 100.0 mg/kg/injection, schedule: Q01DX009 (ip), vehicle: saline); 96 % of control under setting [11]; 98 % of control (endpoint: mean survival time, dose: 200.0 mg/kg/injection, schedule: Q01DX009 (ip), vehicle: saline); 95 % of control under setting [13]; 103 % of control (endpoint: mean survival time, dose: 400.0 mg/kg/injection, schedule: Q01DX009 (ip), vehicle: saline).

On to `Cc1ccc(CO)cc1C`, for which the T/C under setting [9] is 101 % of control, the T/C under setting [10] is 97 % of control and the T/C under setting [11] was 101 % of control.

As to `Brc1ccc(-c2csc(Nc3nc(-c4ccc(Br)cc4)cs3)n2)cc1`, the T/C by setting is: (endpoint: mean survival time, dose: 12.5 mg/kg/injection, schedule: Q01DX009 (ip), vehicle: saline with Tween-80) 86 % of control; under setting [8], 96 % of control; under setting [12], 97 % of control; under setting [9], 96 % of control; (endpoint: mean survival time, dose: 50.0 mg/kg/injection, schedule: Q04DX003 (ip), vehicle: saline with Tween-80) 87 % of control; under setting [5], 88 % of control. The T/C under setting [7] is 92 % of control.

With `O=C1OCCC1=P(c1ccccc1)(c1ccccc1)c1ccccc1`, the T/C under setting [9] was 100 % of control, the T/C under setting [10] is 96 % of control and the T/C under setting [11] was 96 % of control.

As to `CC(=O)OCC1OC(n2c(Cl)nc3c(Cl)nc(N)nc32)C(OC(C)=O)C1OC(C)=O` (stereo unspecified), the T/C is, setting by setting: (endpoint: mean survival time, dose: 100.0 mg/kg/injection, schedule: Q01DX001 (ip), vehicle: saline) 100 % of control; (endpoint: mean survival time, dose: 200.0 mg/kg/injection, schedule: Q01DX001 (ip), vehicle: saline) 100 % of control; (endpoint: mean survival time, dose: 400.0 mg/kg/injection, schedule: Q01DX001 (ip), vehicle: saline) 97 % of control.

Regarding `Cc1ccc(NC(=O)c2ccc(C(=O)Nc3ccc(C)cc3)cc2)cc1`, the T/C reads like this: under setting [10], 98 % of control; under setting [5], 87 % of control; under setting [11], 88 % of control; under setting [6], 97 % of control; under setting [13], 93 % of control; under setting [7], 86 % of control.

As for `Nc1ncnc2c1nnn2Cc1ccco1`, the T/C (endpoint: mean survival time, dose: 12.5 mg/kg/injection, schedule: Q01DX005 (ip), vehicle: other) was 96 % of control; the T/C (endpoint: mean survival time, dose: 25.0 mg/kg/injection, schedule: Q01DX005 (ip), vehicle: other) was 89 % of control; the T/C (endpoint: mean survival time, dose: 50.0 mg/kg/injection, schedule: Q01DX005 (ip), vehicle: other) is 89 % of control; the T/C (endpoint: mean survival time, dose: 100.0 mg/kg/injection, schedule: Q01DX005 (ip), vehicle: other) is 93 % of control; the T/C (endpoint: mean survival time, dose: 200.0 mg/kg/injection, schedule: Q01DX005 (ip), vehicle: other) was 96 % of control.

Regarding `Nc1nc(=O)n(CCCOc2ccc([N+](=O)[O-])c(Cl)c2)cc1-c1ccc(Cl)c(Cl)c1`, the T/C under setting [1] was 90 % of control.
